From US8415358B2, “Pyrazine derivatives and their use as potassium channel modulators” (Neurosearch A/S, priority 2007, dated 2013)

target: T1, hSK3 channels (Homo sapiens, UniProt Q9UGI6); assay: Whole-cell patch-clamp recording of ionic current through SK channels (subtype 3) in HEK293 cells expressing hSK3; assay type: cell-based; details: Stimulating Concentration required for increasing the baseline current by 100%, current at -75 mV, free Ca2+ 0.3-0.4 μM, room temperature
T1 construct: expressed in transfected cells; host or cells: HEK293
Protocol: The ionic current through small-conductance Ca^2+-activated K^+ channels (SK channels, subtype 3) is recorded using the whole-cell configuration of the patch-clamp technique.
HEK293 tissue culture cells expressing hSK3 channels were grown in DMEM (Dulbecco's Modified Eagle Medium) supplemented with 10% FCS (foetal calf serum) at 37° C. in 5% CO2. At 60-80% confluency, cells were harvested by trypsin treatment and seeded on cover slips.
Experiments are carried out on one of several patch-clamp set-ups. Cells plated on coverslips are placed in a 15 μl perfusion chamber (flowrate ˜1 ml/min) mounted on an IMT-2 microscope. The microscopes are placed on vibration-free tables in grounded Faraday cages. All experiments are performed at room temperature (20-22° C.). EPC-9 patch-clamp amplifiers (HEKA-electronics, Lambrect, Germany) are connected to Macintosh computers via ITC16 interfaces. Data are stored directly on the hard-disk and analysed by IGOR software (Wavemetrics, Lake Oswega, Oreg., USA).
The whole-cell configuration of the patch-clamp technique is applied. In short: The tip of a borosilicate pipette (resistance 2-4 MΩ) is gently placed on the cell membrane using remote control systems. Light suction results in the formation of a giga seal (pipette resistance increases to more than 1 GΩ) and the cell membrane underneath the pipette is then ruptured by more powerful suction. Cell capacitance is electronically compensated and the resistance between the pipette and the cell interior (the series resistance, Rs) is measured and compensated for. […]
The intracellular (pipette) solution contained: 154 mM KCl, 10 mM HEPES, 10 mM EGTA. Concentrations of CaCl2 and MgCl2 needed to obtain the desired free concentrations of Ca^2+ (0.3-0.4 μM, Mg^2+ always 1 mM) were calculated by EqCal software (Cambridge, UK) and added.
After establishment of the whole-cell configuration, voltage-ramps (normally −80 to +80 mV) are applied to the cell every 5 seconds from a holding potential of 0 mV. […] Active compounds are quantified by calculating the change in baseline current at −75 mV. […]

Compound	SC100 [µM]
Clc1ccc(Nc2cncc(-c3nccs3)n2)cc1 [Compound 8.4, (4-Chloro-phenyl)-(6-thiazol-2-yl-pyrazin-2-yl)-amine]	0.30
Cc1cc(C)n(-c2cnc(/C=N/O)c(Nc3ccc(Cl)cc3)n2)n1 [Compound 20.1, 3-(4-Chloro-phenylamino)-5-(3,5-dimethyl-pyrazol-1-yl) -pyrazine-2-carbaldehyde oxime]	0.075
Cc1cc(C)n(-c2cncc(Nc3ccc(Cl)cc3)n2)n1 [Compound 4, (4-Chloro-phenyl)-[6-(3,5-dimethyl-pyrazol-1-yl)-pyrazin-2-yl]-amine]	0.25

test system: not given; assay: not given; details: not given

Compound	melting point [°C]
Cc1cc(C)n(-c2cnc(CN)c(Nc3ccc(Cl)cc3)n2)n1 [Compound 21.1, [3-Aminomethyl-6-(3,5-dimethyl-pyrazol-1-yl)-pyrazin-2-yl]-(4-chloro-phenyl)-amine]	156 to 160
COCc1ncc(Nc2ccc(Cl)cc2)nc1-n1nc(C)cc1C [Compound 17.1]	147 to 151
CC(=O)NCc1ncc(-n2nc(C)cc2C)nc1Nc1ccc(Cl)cc1 [Compound 22.1, N-[3-(4-Chloro-phenylamino)-5-(3,5-dimethyl-pyrazol-1-yl)-pyrazin-2-ylmethyl]-acetamide]	228 to 230
Clc1ccc(Nc2cncc(-n3cc4ccccc4n3)n2)cc1 [Compound 3.1, (4-Chloro-phenyl)-(6-indazol-2-yl-pyrazin-2-yl)-amine]	249 to 252
Cc1cc(C)n(-c2cnc(CN(C)C)c(Nc3ccc(Cl)cc3)n2)n1 [Compound 14.1, (4-Chloro-phenyl)-[3-dimethylaminomethyl-6-(3,5-dimethyl-pyrazol-1-yl)-pyrazin-2-yl]-amine]	112 to 114
COCc1ncc(-n2nc(C)cc2C)nc1Nc1ccc(Cl)cc1 [Compound 16.1, (4-Chloro-phenyl)-[6-(3,5-dimethyl-pyrazol-1-yl)-3-methoxymethyl-pyrazin-2-yl]-amine]	105 to 108
Clc1ccc(Nc2cncc(-n3cccn3)n2)cc1 [Compound 3, (4-Chloro-phenyl)-(6-pyrazol-1-yl-pyrazin-2-yl)-amine]	155 to 157
Clc1ccc(Nc2cncc(-n3ncc4ccccc43)n2)cc1 [Compound 3.2, (4-Chloro-phenyl)-(6-indazol-1-yl-pyrazin-2-yl)-amine]	204 to 207
Cc1cccc(-c2cncc(Nc3ccc(Cl)cc3)n2)n1 [Compound 8.1, (4-Chloro-phenyl)-[6-(6-methyl-pyridin-2-yl)-pyrazin-2-yl]-amine]	186 to 188
Cc1cc(C)n(-c2cnc(/C=N/O)c(Nc3ccc(Cl)cc3)n2)n1 [Compound 20.1, 3-(4-Chloro-phenylamino)-5-(3,5-dimethyl-pyrazol-1-yl) -pyrazine-2-carbaldehyde oxime]	228 to 231
CCNc1ncc(Nc2ccc(Cl)cc2)nc1-n1nc(C)cc1C [Compound 27.2, 5-(4-Chloro-phenylamino)-3-(3,5-dimethyl-pyrazol-1-yl)-2-ethylamino-pyrazine]	122 to 124
Cc1cc(C)n(-c2cncc(Nc3ccc(Cl)cc3)n2)n1 [Compound 4, (4-Chloro-phenyl)-[6-(3,5-dimethyl-pyrazol-1-yl)-pyrazin-2-yl]-amine]	157 to 158.9
